These compounds were tested against Human immunodeficiency virus type 1 protease (Human immunodeficiency virus 1, UniProt Q72874) (assay: Inhibitory activity was determined against HIV type 1 protease).

Ki [nM] | Structure (SMILES)
2510 | COc1ccc(CN[C@@H](C(=O)NCC(O)c2ccccc2)[C@H](O)[C@H](Cc2ccccc2)NC(=O)[C@@H](NC(=O)OCc2ccccc2)C(C)C)cc1 (stereo partly drawn)
30.2 | CC(C)[C@H](NC(=O)OCc1ccccc1)C(=O)N[C@@H](Cc1ccccc1)[C@@H](O)[C@@H](NCc1ccccc1)C(=O)N[C@H](C(=O)OCc1nc2ccc([N+](=O)[O-])cc2[nH]1)C(C)C
15.1 | CC(C)[C@H](NC(=O)OCc1ccccc1)C(=O)N[C@@H](Cc1ccccc1)[C@@H](O)[C@@H](NCc1ccc(Br)cc1)C(=O)N[C@H](C(=O)NCc1nc2ccccc2[nH]1)C(C)C
794 | CC(C)[C@H](NC(=O)[C@H](NCc1ccccc1)[C@H](O)[C@H](Cc1ccccc1)NC(=O)[C@H](O)C(C)C)C(=O)NCc1ccccc1
1290 | COc1ccc(CN[C@@H](C(=O)NCCNCc2nc3ccccc3[nH]2)[C@H](O)[C@H](Cc2ccccc2)NC(=O)[C@@H](NC(=O)OCc2ccccc2)C(C)C)cc1
20.9 | COc1ccc(CN[C@@H](C(=O)N[C@H](C(=O)NCc2nc3ccccc3[nH]2)C(C)C)[C@H](O)[C@H](Cc2ccccc2)NC(=O)[C@@H](NC(=O)OC(C)(C)C)C(C)C)cc1
28.8 | COc1ccc(CN[C@@H](C(=O)N[C@H](C(=O)NCCn2ccnc2)C(C)C)[C@H](O)[C@H](Cc2ccccc2)NC(=O)[C@@H](NC(=O)OCc2ccccc2)C(C)C)cc1
14.1 | COc1ccc(CN[C@@H](C(=O)N[C@H](C(=O)NCc2ccc(OC)cc2O)C(C)C)[C@H](O)[C@H](Cc2ccccc2)NC(=O)[C@@H](NC(=O)OCc2ccccc2)C(C)C)cc1
14.5 | CC(C)(C)[C@H](NC(=O)OCc1ccccc1)C(=O)N[C@@H](Cc1ccccc1)[C@@H](O)[C@@H](NCc1ccccc1)C(=O)N[C@H]1c2ccccc2CC1O (stereo partly drawn)
15.8 | COc1ccc(CN[C@@H](C(=O)N[C@H](C(=O)Nc2ccc3ncsc3c2)C(C)C)[C@H](O)[C@H](Cc2ccccc2)NC(=O)[C@@H](NC(=O)OCc2ccccc2)C(C)C)cc1
10.5 | COc1ccc(CN[C@@H](C(=O)N[C@H](C(=O)Nc2nc3ccccc3s2)C(C)C)[C@H](O)[C@H](Cc2ccccc2)NC(=O)[C@@H](NC(=O)OCc2ccccc2)C(C)C)cc1
1410 | CC(C)[C@H](NC(=O)OCc1ccccc1)C(=O)N[C@@H](Cc1ccccc1)[C@@H](O)[C@@H](NC1CCC(O)CC1)C(=O)N[C@H](C(=O)NCc1ccccc1)C(C)C (stereo in doubt; c)
37.2 | CCOc1ccc(CN[C@@H](C(=O)NCc2ccccc2)[C@H](O)[C@H](Cc2ccccc2)NC(=O)[C@@H](NC(=O)OCc2ccccc2)C(C)(C)C)cc1
7.76 | COc1ccc(CN[C@@H](C(=O)N[C@H](C(=O)NCc2nc3ccccc3[nH]2)C(C)C)[C@H](O)[C@H](Cc2ccccc2)NC(=O)[C@@H](N)C(C)(C)C)cc1
6.46 | CC(C)[C@H](NC(=O)OCc1ccccc1)C(=O)N[C@@H](Cc1ccccc1)[C@@H](O)[C@@H](NCc1ccc(Cl)cc1)C(=O)N[C@H](C(=O)NCc1ccccn1)C(C)C
25.7 | COc1ccc(CN[C@@H](C(=O)N[C@H](C(=O)NCCN(C)C)C(C)C)[C@H](O)[C@H](Cc2ccccc2)NC(=O)[C@@H](NC(=O)OCc2ccccc2)C(C)C)cc1
89.1 | COc1ccc(CN[C@@H](C(=O)N[C@H](C(=O)NCc2nc3ccccc3[nH]2)c2ccccc2)[C@H](O)[C@@H](N)Cc2ccccc2)cc1
24 | CCOc1ccc(CN[C@@H](C(=O)N[C@H](C(=O)NCc2nc3ccccc3[nH]2)C(C)C)[C@H](O)[C@H](Cc2ccccc2)NC(=O)[C@@H](NC(=O)OCc2ccccc2)C(C)C)cc1
1510 | COc1ccc(CN[C@@H](C(=O)NCC(=O)Nc2cnccc2N)[C@H](O)[C@H](Cc2ccccc2)NC(=O)[C@@H](NC(=O)OCc2ccccc2)C(C)C)cc1
14.1 | COc1ccc(CN[C@@H](C(=O)NC2c3ccccc3C[C@H]2O)[C@H](O)[C@H](Cc2ccccc2)NC(=O)[C@@H](NC(=O)C(O)Cc2ccccc2)C(C)(C)C)cc1 (stereo partly drawn)
53.7 | CC(C)(C)[C@H](NC(=O)OCc1ccccc1)C(=O)N[C@@H](Cc1ccccc1)[C@@H](O)[C@@H](NCc1ccc(CNC(=O)CCc2nc3ccccc3[nH]2)cc1)C(=O)NCc1ccccc1
15.1 | COc1ccc(CN[C@@H](C(=O)N[C@H](C(=O)Nc2ccc3c(c2)OCCO3)C(C)C)[C@H](O)[C@H](Cc2ccccc2)NC(=O)[C@@H](NC(=O)OCc2ccccc2)C(C)C)cc1
26.9 | CC(C)[C@H](NC(=O)[C@H](NCc1ccccc1)[C@H](O)[C@H](Cc1ccccc1)NC(=O)[C@@H](NC(=O)c1nc2c(F)cccc2[nH]1)C(C)(C)C)C(=O)NCc1ccccc1
4.17 | COc1ccc(CN[C@@H](C(=O)N[C@H](C(=O)NCc2nc3cc[nH]cc-3n2)C(C)C)[C@H](O)[C@H](Cc2ccccc2)NC(=O)[C@@H](NC(=O)OCc2ccccc2)C(C)C)cc1
9.55 | COc1cccc(CN[C@@H](C(=O)N[C@H](C(=O)NCc2ccccc2)C(C)C)[C@H](O)[C@H](Cc2ccccc2)NC(=O)[C@@H](NC(=O)OCc2ccccc2)C(C)C)c1
61.7 | CC(C)[C@H](NC(=O)OCc1ccccc1)C(=O)N[C@@H](Cc1ccccc1)[C@@H](O)[C@@H](NCCc1cc2ccccc2[nH]1)C(=O)N[C@H](C(=O)NCc1ccccc1)C(C)C
182 | CC(C)[C@H](NC(=O)[C@H](NCc1ccc(Cl)cc1)[C@H](O)[C@@H](N)Cc1ccccc1)C(=O)NCc1nc2ccccc2[nH]1

Ki [nM] | Structure (SMILES)
19.1 | COc1ccc(CN[C@@H](C(=O)N[C@H](C(=O)NCCn2cnc3ccccc32)C(C)C)[C@H](O)[C@H](Cc2ccccc2)NC(=O)[C@@H](NC(=O)OCc2ccccc2)C(C)C)cc1
17 | CC(C)[C@H](NC(=O)OCc1ccccc1)C(=O)N[C@@H](CCc1ccccc1)[C@@H](O)[C@@H](NCc1ccc(Cl)cc1)C(=O)N[C@H](C(=O)NCc1nc2ccccc2[nH]1)C(C)C
46.8 | COc1ccc(CN[C@@H](C(=O)NCCC(=O)NCc2nc3ccccc3[nH]2)[C@H](O)[C@H](Cc2ccccc2)NC(=O)[C@@H](NC(=O)OCc2ccccc2)C(C)C)cc1
7.08 | CC(C)[C@H](NC(=O)OCc1ccccc1)C(=O)N[C@@H](Cc1ccccc1)[C@@H](O)[C@@H](NCc1cccnc1)C(=O)N[C@H](C(=O)NCc1ccccc1)C(C)C
229 | COc1ccc(CN[C@@H](C(=O)N[C@H](C(=O)NCc2nc3ccccc3[nH]2)C(C)C)[C@H](O)[C@@H](N)Cc2ccccc2)cc1
3020 | COc1ccc(CN[C@@H](C(=O)NCc2ccc(OC)cc2O)[C@H](O)[C@H](Cc2ccccc2)NC(=O)[C@@H](NC(=O)OCc2ccccc2)C(C)C)cc1
33.1 | CC(C)(C)OC(=O)N[C@@H](Cc1ccccc1)[C@@H](O)[C@@H](NCc1ccc(CNC(=O)Nc2ccccc2)cc1)C(=O)N[C@H]1c2ccccc2CC1O (stereo partly drawn)
4.27 | COc1ccc(CN[C@@H](C(=O)N[C@H](C(=O)NCc2nc3ccccc3[nH]2)C(C)C)[C@H](O)[C@H](Cc2ccccc2)NC(=O)[C@@H](NC(=O)CCc2ccc(O)c(I)c2)C(C)(C)C)cc1
91.2 | CC(C)[C@H](NC(=O)[C@H](NCc1ccccc1)[C@H](O)[C@H](Cc1ccccc1)NC(=O)[C@@H](N)C(C)(C)C)C(=O)NCc1ccccc1
4.17 | COc1ccc(CN[C@@H](C(=O)N[C@H](C(=O)NCc2ccc(OC)cc2OC)C(C)C)[C@H](O)[C@H](Cc2ccccc2)NC(=O)[C@@H](NC(=O)OCc2ccccc2)C(C)C)cc1
6.03 | COc1ccc(CN[C@@H](C(=O)N[C@H](C(=O)NCc2nc3ccccc3[nH]2)C(C)C)[C@H](O)[C@H](Cc2ccccc2)NC(=O)[C@@H](NC(=O)[C@@H](O)Cc2ccccc2)C(C)(C)C)cc1
7.76 | COc1ccc(CN[C@@H](C(=O)N[C@H](C(=O)NCc2nc3ccccc3[nH]2)C(C)C)[C@H](O)[C@H](Cc2ccccc2)NC(=O)OC(C)(C)C)cc1
15.5 | COc1ccc(CN[C@@H](C(=O)NCC(=O)NCc2nc3ccccc3[nH]2)[C@H](O)[C@H](Cc2ccccc2)NC(=O)[C@@H](NC(=O)OCc2ccccc2)C(C)C)cc1
741 | CC(C)[C@H](N)C(=O)N[C@@H](Cc1ccccc1)[C@@H](O)[C@@H](NCc1ccccc1)C(=O)N[C@H](C(=O)NCc1ccccc1)C(C)C
676 | CC(C)(C)OC(=O)N[C@@H](Cc1ccccc1)[C@@H](O)[C@@H](NCc1ccc(CNC(=O)CCc2nc3ccccc3[nH]2)cc1)C(=O)NCc1ccccc1
42.7 | CC(C)[C@H](NC(=O)c1ccc2ccccc2n1)C(=O)N[C@@H](Cc1ccccc1)[C@@H](O)[C@@H](NCc1ccccc1)C(=O)N[C@H](C(=O)NCc1ccccn1)C(C)C
19.1 | CC(C)(C)OC(=O)N[C@@H](Cc1ccccc1)[C@@H](O)[C@@H](NCc1ccc(CNC(=O)OCc2ccccc2)cc1)C(=O)N[C@H]1c2ccccc2CC1O (stereo partly drawn)
9.55 | COc1ccc(CN[C@@H](C(=O)N[C@@H]2c3ccccc3CC2O)[C@H](O)[C@H](Cc2ccccc2)NC(=O)[C@@H](NC(=O)OCc2ccccc2)C(C)(C)C)cc1 (stereo partly drawn)
8.91 | COc1ccc(C[C@H](NC(=O)OC(C)(C)C)[C@@H](O)[C@@H](NCc2ccc(Cl)cc2)C(=O)N[C@H](C(=O)NCc2nc3ccccc3[nH]2)C(C)C)cc1
12.6 | COc1ccc(CCN[C@@H](C(=O)N[C@H](C(=O)NCc2nc3ccccc3[nH]2)C(C)C)[C@H](O)[C@H](Cc2ccccc2)NC(=O)[C@@H](NC(=O)OCc2ccccc2)C(C)C)cc1
22.9 | COc1ccc(CN[C@@H](C(=O)N[C@H]2c3ccccc3CC2O)[C@H](O)[C@H](Cc2ccccc2)NC(=O)[C@@H](NC(=O)c2cn3cccnc3n2)C(C)(C)C)cc1 (stereo partly drawn)
1200 | CC(C)(C)OC(=O)N[C@@H](Cc1ccccc1)[C@@H](O)[C@@H](NCc1ccc(OCCO)cc1)C(=O)NCc1ccccc1
8.91 | CC(C)[C@H](NC(=O)OCc1ccccc1)C(=O)N[C@@H](Cc1ccccc1)[C@@H](O)[C@@H](Nc1ccc(-c2ccccc2)cc1)C(=O)N[C@H](C(=O)NCc1nc2ccccc2[nH]1)C(C)C
138 | CC(C)[C@H](NC(=O)COc1ccccc1)C(=O)N[C@@H](Cc1ccccc1)[C@@H](O)[C@@H](NCc1ccccc1)C(=O)NCc1ccccc1
550 | Cc1cn(CCO)c(=O)n(CCOC(=O)[C@@H](NC(=O)[C@H](NCc2ccccc2)[C@H](O)[C@H](Cc2ccccc2)NC(=O)[C@@H](NC(=O)OCc2ccccc2)C(C)C)C(C)C)c1=O
14.1 | CCCCCCCCOC(=O)N[C@H](C(=O)N[C@@H](Cc1ccccc1)[C@@H](O)[C@@H](NCc1ccccc1)C(=O)N[C@H](C(=O)NCc1ccccc1)C(C)C)C(C)(C)C
